What was measured:
lysine gingipain (Kgp) [1] = biological target: lysine gingipain (Kgp) (Porphyromonas gingivalis (Bacteroides gingivalis), UniProt P72194); assay: biochemical; type: biochemical
Description: (§1) The specific assay conditions were as follows. Buffer: pH=7.5, 100 mM Tris-HCl, 75 mM NaCl, 2.5 mM CaCl2), 10 mM cysteine, 1% DMSO after all additions. Protein: 0.1 nM Kgp, isolated from culture of Porphyromonas gingivalis, as described by Pike et al. (J. Biol. Chem. 1994, 269(1), 406), and Potempa and Nguyen (Current Protocols in Protein Science. 2007, 21.20.1-21.20.27). Fluorogenic substrate: 10 μM Z-His-Glu-Lys-MCA. Time=90 minutes. Temperature=37° C.
(§2) Further assays to measure the inhibitory activity of compounds of the present invention against Kgp and cathepsins B, H, K, L, and S were conducted as described in Example 66. The capacities of the compounds to inhibit the activity of cathepsins F, V, and Z were also measured.

[2] = Pharmacokinetics in male CD-1 mice dosed p.o.; type: in vivo; conditions: p.o. 10 mg/kg, compared to reference compound 73
lysine gingipain (Kgp) [3] = assay: biochemical; type: biochemical, Porphyromonas gingivalis; conditions: as compared to reference compound 73
Description: as §1, §2

Row | SMILES | IC50 (lysine gingipain (Kgp) [1]; IC50 (nM) Kgp, Table 4) [nM] | other results
1 | NCCCCC(NC(=O)c1cccnc1Br)C(=O)COc1c(F)cccc1F (centres unmarked) [Compound 34a] | 0.13 | –
2 | NCCCCC(NC(=O)c1ccc(F)cc1)C(=O)COc1c(F)cccc1F (centres unmarked) [Compound 35a] | 0.1 | –
3 | NCCCCC(NC(=O)c1ccccc1)C(=O)C(F)F (centres unmarked) [Compound 37a] | > 100 | –
4 | NCCCCC(NC(=O)C1CCCC1)C(=O)Cn1cnccc1=O (centres unmarked) [Compound 39a] | > 100 | –
5 | NCCCCC(NC(=O)C1CCCC1)C(=O)Cn1ccc(=O)nc1 (centres unmarked) [Compound 40a] | 30.3 | –
6 | NCCCCC(NC(=O)C1CCCC1)C(=O)Cn1cncc(F)c1=O (centres unmarked) [Compound 41a] | > 100 | –
7 | NCCCCC(NC(=O)c1cccnc1)C(=O)COc1c(F)ccc(F)c1F (centres unmarked) [Compound 42a] | 0.06 | –
8 | NCCCCC(NC(=O)c1cccnc1)C(=O)COc1c(F)cccc1F (centres unmarked) [Compound 43a] | 0.09 | –
9 | CN(C)c1ccc(/N=N/c2ccc(C(=O)NCc3cc(F)c(OCC(=O)C(CCCCN)NC(=O)c4cccc(N=[N+]=[N-])c4)c(F)c3)cc2)cc1 (centres unmarked) [Compound 44a] | 3.04 | IC50 (lysine gingipain (Kgp) [1]; Kgp IC50 (nM), Table 5, probe compounds): 3 nM
10 | COC(C)(C)C(=O)N[C@@H](CCCCN)C(=O)COc1c(F)cccc1F [Compound 48, (S)—N-(7-amino-1-(2,6-difluorophenoxy)-2-oxoheptan-3-yl)-2-methoxy-2-methylpropanamide] | – | oral availability [2]: improved oral availability; plasma concentrations [2]: increased plasma concentrations
11 | COC(C)(C)C(=O)NC(CCCCN)C(=O)COc1c(F)cccc1F (centres unmarked) [Compound 48a] | 0.07 | –
12 | NCCCC[C@H](NC(=O)C1CCCC1)C(=O)COc1ccon1 [Compound 49, (S)—N-(7-amino-1-(isoxazol-3-yloxy)-2-oxoheptan-3-yl)cyclopentanecarboxamide] | – | concentrations in the brain and cerebrospinal fluid (CSF) [2]: reduced concentrations in the brain and/or cerebrospinal fluid
13 | NCCCCC(NC(=O)C1CCCC1)C(=O)COc1ccon1 (centres unmarked) [Compound 49a] | 0.23 | –
14 | NCCCC[C@H](NC(=O)c1ccccn1)C(=O)COc1c(F)ccc(F)c1F [Compound 50, (S)—N-(7-amino-2-oxo-1-(2,3,6-trifluorophenoxy)heptan-3-yl)picolinamide] | – | selectivity for Kgp over endogenous cathepsins (lysine gingipain (Kgp) [3]): increased selectivity
15 | NCCCCC(NC(=O)c1ccncc1)C(=O)COc1c(F)ccc(F)c1F (centres unmarked) [Compound 52a] | 0.06 | –
16 | NCCCC[C@H](NC(=O)c1ccc(F)nc1)C(=O)COc1ccon1 [Compound 55, (S)—N-(7-amino-1-(isoxazol-3-yloxy)-2-oxoheptan-3-yl)-6-fluoronicotinamide] | – | selectivity for Kgp over endogenous cathepsins (lysine gingipain (Kgp) [3]): far more selective
17 | NCCCCC(NC(=O)c1cccnc1F)C(=O)COc1ccon1 (centres unmarked) [Compound 56a] | 0.1 | –
18 | COC(C)(C)C(=O)NC(CCCCN)C(=O)COc1ccon1 (centres unmarked) [Compound 57a] | 0.09 | –
19 | CS(C)(=O)=CC(=O)C(CCCCN)NC(=O)C1CCCC1 (centres unmarked) [Compound 58a] | 4.66 | –
20 | C[N+](C)(C)c1ccc(C(=O)NC(CCCCN)C(=O)COc2ccon2)cn1 (centres unmarked) [Compound 61a] | 0.43 | –
21 | CN(C)c1ccc(C(=O)NC(CCCCN)C(=O)COc2ccon2)cn1 (centres unmarked) [Compound 62a] | 0.14 | –
22 | COC(C)(C)C(=O)NC(CCCCN)C(=O)COc1cc(C)nc(C)c1 (centres unmarked) [Compound 63a] | 0.09 | –
23 | COC(C)(C)C(=O)NC(CCCCN)C(=O)COc1cccnc1 (centres unmarked) [Compound 64a] | 0.4 | –
24 | COC(C)(C)C(=O)NC(CCCCN)C(=O)COc1cnc(C)nc1 (centres unmarked) [Compound 65a] | 0.16 | –
